Consider six molecules from ChEMBL document CHEMBL5257063, “Dendrillic Acids A and B: Nitrogenous, Rearranged Spongian Nor-Diterpenes from a Dendrilla sp. Marine Sponge” (J Nat Prod, 2023).

Data set [1] can be described thus: Cytotoxicity against human NFF cells incubated for 96 hrs by resazurin dye based assay. The data set is classed as toxicity, cell-based. As to conditions: read-out: MIC.
For data set [2], the system named is Staphylococcus aureus. The data set is described as follows: Antibacterial activity against Staphylococcus aureus ATCC 25923 measured after 48 hrs by resazurin reagent based assay. The data set is classed as functional.
Data set [3] relates to Giardia intestinalis. Briefly: Antiparasitic activity against Giardia duodenalis WB-1B 713 assessed as parasite growth inhibition measured after 96 hrs under anaerobic conditions. The format is functional.
Data set [4] deals with Bacillus subtilis. Briefly: Antibacterial activity against Bacillus subtilis ATCC 6633 measured after 48 hrs by resazurin reagent based assay. The data set is classed as functional.
Data set [5] has as its system Candida albicans. Briefly: Antifungal activity against Candida albicans ATCC 10231 measured after 48 hrs by bromocresol green reagent based assay. The data set is classed as functional.
A short description of data set [6]: Cytotoxicity against mouse NS-1 cells incubated for 96 hrs by resazurin dye based assay. The data set is classed as functional. On the technique in general: Resazurin is reduced to fluorescent resorufin, in cell work by metabolically active cells.
The test system of data set [7] is Tritrichomonas foetus. Briefly: Anti-protozoal activity against Tritrichomonas foetus KV-1 measured after 72 hrs under anaerobic conditions. The data set is classed as functional.
The subject of data set [8] is Saccharomyces cerevisiae. The data set is described as follows: Antifungal activity against Saccharomyces cerevisiae ATCC 9763 measured after 48 hrs by bromocresol green reagent based assay. The format is functional.

Structures are written as SMILES. In brackets after ≈: the same amount, converted by molar mass.

With `C[C@@H]1c2c([C@@]3(C)CCCC(C)(C)C3)ccc(C(=O)O)c2C(=O)N1CC(=O)O`, in data set [1], the MCC at 96 h was more than 100 µg/mL. Further, the MIC was more than 100 µg/mL in data set [2]; 100 µg/mL (≈ 268 µM) in data set [3]; more than 100 µg/mL in data set [4]; more than 200 µg/mL in data set [5]; more than 100 µg/mL in data set [6]; more than 100 µg/mL in data set [7]. In data set [8], this molecule displayed an MIC of more than 200 µg/mL.
As to `CN(CC[C@H](N)CC(=O)N[C@H]1C=C[C@H](n2ccc(N)nc2=O)O[C@@H]1C(=O)O)C(=N)N.Cl`, the MIC in data set [5] was more than 200 µg/mL; in data set [8], 3.1 µg/mL.
With `C[C@H]1c2c([C@@]3(C)CCCC(C)(C)C3)ccc(C(=O)O)c2C(=O)N1CC(=O)O`, the MCC at 96 h in data set [1] is more than 100 µg/mL. For the same molecule, the MIC in data set [2] was more than 100 µg/mL; in data set [3], 50 µg/mL (≈ 134 µM); in data set [4], more than 100 µg/mL; in data set [5] it was more than 200 µg/mL; in data set [6], more than 100 µg/mL; in data set [7], more than 100 µg/mL. Besides, the MIC in data set [8] was more than 200 µg/mL.
With `Cc1ncc([N+](=O)[O-])n1CCO` [METRONIDAZOLE], the MIC was determined as 0.3 µg/mL (≈ 1.75 µM) in data set [3] and 0.2 µg/mL (≈ 1.17 µM) in data set [7].
As for `CSC[S@@+]([O-])CC(CO)NC(=O)/C=C/c1c(C)[nH]c(=O)[nH]c1=O` (some centres undefined) [SPARSOMYCIN], in data set [1], the MCC at 96 h was 0.6 µg/mL. Moreover, the MIC in data set [6] was determined as 0.6 µg/mL (≈ 1.66 µM).
With `CN(C)[C@@H]1C(O)=C(C(N)=O)C(=O)[C@@]2(O)C(O)=C3C(=O)c4c(O)cccc4[C@@](C)(O)[C@H]3C[C@@H]12` [TETRACYCLINE], the MIC was found to be 12.5 µg/mL (≈ 28.1 µM) in data set [2] and 6.3 µg/mL (≈ 14.2 µM) in data set [4].
